{"source": "paper PMC6397271", "about": "(Scientific Reports, 2019)", "key": {"[1]": {"tested_on": "Enterococcus faecalis 3937158", "experiment": "microbe, parasite or virus in culture", "format": "cell-based", "method_in_brief": "(§1)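 MICs were measured by microbroth dilution against MRSA in cation-adjusted Mueller-Hinton broth and enterococci in Brain Heart Infusion broth. Viability was read with resazurin dye.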"}, "[2]": {"tested_on": "Enterococcus faecium 3934825", "experiment": "microbe, parasite or virus in culture", "format": "cell-based", "method_in_brief": "as §1"}, "[3]": {"tested_on": "bacterial strain not named", "experiment": "Raw data of the MIC measurement (absorbance)", "format": "cell-based", "settings": "concentration marked (MIC) in raw absorbance data", "procedure": "The strains were grown in Mueller-Hinton broth (MH cation-adjusted, Becton Dickinson) or Brain Heart Infusion broth (BHI, Becton Dickinson), respectively. The cultivation was carried out in an aerobic atmosphere at 37 °C for 24 hours and, afterwards, the bacterial cultures were diluted in geometric progression with a proper broth. Next, 100 µl of each dilution was inoculated in an agar plate and incubated at 37 °C for 24 h. The next procedures included determination of Colony Forming Units (CFU)/ml and minimal inhibitory concentration (MIC) of the compounds in question. The latter procedure was carried out according to the microbroth dilution technique using 96-well plates. The MICs were evaluated by using the metabolic assay based on the resazurin dye. The assay was performed in triplicates."}, "[4]": {"tested_on": "intracellular MRSA 12673 strain in HEK293 cells", "experiment": "Intracellular antimicrobial (infection) assay", "format": "cell-based, Staphylococcus aureus", "procedure": "HEK293 (human embryonic kidney) cells were purchased form Cell Line Services (Germany). The cells were cultured in Dulbecco’s Modified Eagle’s (DMEM) medium with 4.5 g/l glucose (Sigma-Aldrich, Germany), supplemented with 10% fetal bovine serum (FBS, Sigma-Aldrich, Germany) and 1% PEN/STREP (Sigma-Aldrich, Germany). Cells were maintained in a 5% CO2 incubator at 37 °C. The original lines were checked for the presence of mycoplasma.\nHEK293 cells were seeded at a density of 1.5 × 10^5 cells/well in 24-well plates in an antibiotic-free medium (DMEM + 10% FBS) and were allowed to adhere overnight. Next, the medium was removed and overnight culture of S. aureus strain (12673) suspended in DMEM + 1% FBS (invasive medium) at a ratio of bacteria/cells 25:1 was added. To enable bacterial invasion, the cells were incubated with bacterial suspensions (37 °C, 5% CO2) for 2 h.\nAfter this period of time extracellular bacteria were eliminated by a 30 min incubation with 20 U/ml lysostaphin. […] The lysis of human cells was carried out with 0.2% Trition-X-100 (Sigma-Aldrich, Germany). The obtained cell lysates were serially diluted in PBS and plated on agar plates and CFU/ml was determined.\nThe results are presented as the percentage of S. aureus intracellular survival after treatment in comparison to that of non-treated cells (control). The assay was performed in triplicates."}, "[5]": {"tested_on": "S.aureus MRSA 12673", "experiment": "microbe, parasite or virus in culture", "format": "cell-based, Staphylococcus aureus", "settings": "Staphylococcus aureus, MRSA", "procedure": "(§2) To find out MICA(with B) and MICB(with A) a checkerboard assay was carried out in 96-well microtiter plates (each test was performed in triplicates). […] Each well in a 96-well plate was inoculated with 100 µL of bacterial inoculum of 1 × 10^5 CFU/mL. For this purpose only bacterial strains of MRSA (N315, 12673 and 6347) were used. Next, the plates were incubated at 37 °C for 24 h.\n(§3) FIC index (FICI) is the sum of FICA and FICB. The interpretation of the calculated FICIs is in accordance to the following principle: FICI ≤ 0.5 synergy; FICI > 0.5 and ≤4 indifference (no interaction); FICI > 4, antagonism."}, "[6]": {"tested_on": "S.aureus MRSA hetero-VISA 6347", "experiment": "microbe, parasite or virus in culture", "format": "cell-based, Staphylococcus aureus", "settings": "Staphylococcus aureus", "procedure": "as §2, §3"}, "[7]": {"tested_on": "S.aureus MRSA N315", "experiment": "microbe, parasite or virus in culture", "format": "cell-based, Staphylococcus aureus", "settings": "Staphylococcus aureus, MRSA", "procedure": "as §2, §3"}, "[8]": {"settings": "microbroth dilution, 96-well, resazurin, 37 °C, 24 h, mean ± SD, at least three independent experiments in triplicates, listed as Van-HCl"}, "[9]": {"settings": "same test as μM value, mean ± SD"}, "[10]": {"settings": "24 h, read-out: MIC Van(with TP10), MICA (with B)"}}, "note": "Read-outs that look alike come from different tables or passages of the source."}
{"compound": "CN[C@H](CC(C)C)C(=O)N[C@H]1C(=O)N[C@@H](CC(N)=O)C(=O)N[C@H]2C(=O)N[C@H]3C(=O)N[C@H](C(=O)N[C@H](C(=O)O)c4cc(O)cc(O)c4-c4cc3ccc4O)[C@H](O)c3ccc(c(Cl)c3)Oc3cc2cc(c3O[C@@H]2O[C@H](CO)[C@@H](O)[C@H](O)[C@H]2O[C@H]2C[C@](C)(N)[C@H](O)[C@H](C)O2)Oc2ccc(cc2Cl)[C@H]1O", "note": "[Van, vancomycin, reference compound]", "values": [{"measurement": "MIC", "setting": "[1]; Enterococcus faecalis, 3937158, 24 h, microbroth dilution, 96-well, resazurin, 37 °C, 24 h, mean ± SD, at least three independent experiments in triplicates, read-out: MIC", "result": 25, "unit": "µM"}, {"measurement": "MIC", "setting": "[1]; Enterococcus faecalis, 3937158, raw MIC, first block, test a, repetition 1, read-out: MIC1a", "result": 25, "unit": "µM"}, {"measurement": "MIC", "setting": "[1]; Enterococcus faecalis, 3937158, raw MIC, first block, test a, repetition 2, read-out: MIC2a", "result": 25, "unit": "µM"}, {"measurement": "MIC", "setting": "[1]; Enterococcus faecalis, 3937158, raw MIC, first block, test a, repetition 3, read-out: MIC3a", "result": 12.5, "unit": "µM"}, {"measurement": "MIC", "setting": "[1]; Enterococcus faecalis, 3937158, raw MIC, first block, test b, repetition 1, read-out: MIC1b", "result": 25, "unit": "µM"}, {"measurement": "MIC", "setting": "[1]; Enterococcus faecalis, 3937158, raw MIC, first block, test b, repetition 2, read-out: MIC2b", "result": 25, "unit": "µM"}, {"measurement": "MIC", "setting": "[1]; Enterococcus faecalis, 3937158, raw MIC, first block, test b, repetition 3, read-out: MIC3b", "result": 12.5, "unit": "µM"}, {"measurement": "MIC", "setting": "[1]; Enterococcus faecalis, 3937158, raw MIC, test a, repetition 1, read-out: MIC1a", "result": 37.1, "unit": "µM"}, {"measurement": "MIC", "setting": "[1]; Enterococcus faecalis, 3937158, raw MIC, test a, repetition 2, read-out: MIC2a", "result": 37.1, "unit": "µM"}, {"measurement": "MIC", "setting": "[1]; Enterococcus faecalis, 3937158, raw MIC, test a, repetition 3, read-out: MIC3a", "result": 18.6, "unit": "µM"}, {"measurement": "MIC", "setting": "[1]; Enterococcus faecalis, 3937158, raw MIC, test b, repetition 1, read-out: MIC1b", "result": 37.1, "unit": "µM"}, {"measurement": "MIC", "setting": "[1]; Enterococcus faecalis, 3937158, raw MIC, test b, repetition 2, read-out: MIC2b", "result": 37.1, "unit": "µM"}, {"measurement": "MIC", "setting": "[1]; Enterococcus faecalis, 3937158, raw MIC, test b, repetition 3, read-out: MIC3b", "result": 18.6, "unit": "µM"}, {"measurement": "MIC", "setting": "[1]; [8]", "result": "25.0 ± 6.5", "unit": "µM"}, {"measurement": "MIC in (μg/ml)", "setting": "[1]; [9]", "result": "37.1 ± 9.6", "unit": "µg/mL"}, {"measurement": "MIC", "setting": "[2]; Enterococcus faecium, 3934825, 24 h, microbroth dilution, 96-well, resazurin, 37 °C, 24 h, mean ± SD, at least three independent experiments in triplicates, read-out: MIC", "result": 25, "unit": "µM"}, {"measurement": "MIC", "setting": "[2]; Enterococcus faecium, 3934825, raw MIC, first block, test a, repetition 1, read-out: MIC1a", "result": 25, "unit": "µM"}, {"measurement": "MIC", "setting": "[2]; Enterococcus faecium, 3934825, raw MIC, first block, test a, repetition 2, read-out: MIC2a", "result": 25, "unit": "µM"}, {"measurement": "MIC", "setting": "[2]; Enterococcus faecium, 3934825, raw MIC, first block, test a, repetition 3, read-out: MIC3a", "result": 12.5, "unit": "µM"}, {"measurement": "MIC", "setting": "[2]; Enterococcus faecium, 3934825, raw MIC, first block, test b, repetition 1, read-out: MIC1b", "result": 12.5, "unit": "µM"}, {"measurement": "MIC", "setting": "[2]; Enterococcus faecium, 3934825, raw MIC, first block, test b, repetition 2, read-out: MIC2b", "result": 25, "unit": "µM"}, {"measurement": "MIC", "setting": "[2]; Enterococcus faecium, 3934825, raw MIC, first block, test b, repetition 3, read-out: MIC3b", "result": 25, "unit": "µM"}, {"measurement": "MIC", "setting": "[2]; Enterococcus faecium, 3934825, raw MIC, test a, repetition 1, read-out: MIC1a", "result": 37.1, "unit": "µM"}, {"measurement": "MIC", "setting": "[2]; Enterococcus faecium, 3934825, raw MIC, test a, repetition 2, read-out: MIC2a", "result": 37.1, "unit": "µM"}, {"measurement": "MIC", "setting": "[2]; Enterococcus faecium, 3934825, raw MIC, test a, repetition 3, read-out: MIC3a", "result": 37.1, "unit": "µM"}, {"measurement": "MIC", "setting": "[2]; Enterococcus faecium, 3934825, raw MIC, test b, repetition 1, read-out: MIC1b", "result": 18.6, "unit": "µM"}, {"measurement": "MIC", "setting": "[2]; Enterococcus faecium, 3934825, raw MIC, test b, repetition 2, read-out: MIC2b", "result": 37.1, "unit": "µM"}, {"measurement": "MIC", "setting": "[2]; Enterococcus faecium, 3934825, raw MIC, test b, repetition 3, read-out: MIC3b", "result": 37.1, "unit": "µM"}, {"measurement": "MIC", "setting": "[2]; [8]", "result": "25.0 ± 6.5", "unit": "µM"}, {"measurement": "MIC in (μg/ml)", "setting": "[2]; [9]", "result": "37.1 ± 7.6", "unit": "µg/mL"}, {"measurement": "MIC", "setting": "[3]", "result": 3.13, "unit": "µM"}, {"measurement": "percentage of S. aureus intracellular survival", "setting": "[4]; HEK293 infected 25:1 for 2 h, lysostaphin 20 U/ml 30 min, compound 25 µM for 24 h, CFU/ml of lysates vs non-treated cells, triplicates, Fig. 2", "result": "~95", "unit": "%"}, {"measurement": "intracellular MRSA killed (bacterial killing rate)", "setting": "[4]; MRSA-infected HEK293 cells, 25 µM, 24 h", "result": 5, "unit": "%"}, {"measurement": "MIC", "setting": "[5]; [10]", "result": 1.6, "unit": "µM"}, {"measurement": "MIC", "setting": "[5]; read-out: MIC Van (A), MICA", "result": 4.1, "unit": "µM"}, {"measurement": "MIC", "setting": "[6]; [10]", "result": 1.6, "unit": "µM"}, {"measurement": "MIC", "setting": "[6]; read-out: MIC Van (A), MICA", "result": 4.1, "unit": "µM"}, {"measurement": "MIC", "setting": "[7]; [10]", "result": 1.6, "unit": "µM"}, {"measurement": "MIC", "setting": "[7]; read-out: MIC Van (A), MICA", "result": 2, "unit": "µM"}]}
